One assay concerns the target T1, 15-PGDH/HPGD (Homo sapiens, UniProt P15428).
T1 construct: purchased R&D System 5660-DH
T1 sequence (P15428 1-266): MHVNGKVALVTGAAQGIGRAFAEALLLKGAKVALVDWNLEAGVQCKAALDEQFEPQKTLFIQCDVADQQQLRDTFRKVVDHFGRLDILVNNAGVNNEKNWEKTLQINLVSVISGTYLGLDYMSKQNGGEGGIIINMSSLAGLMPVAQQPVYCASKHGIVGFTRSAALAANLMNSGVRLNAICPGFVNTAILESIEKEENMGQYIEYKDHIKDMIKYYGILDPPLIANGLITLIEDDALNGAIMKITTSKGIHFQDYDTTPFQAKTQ
Briefly: hPGDH inhibitor screening biochemical assay. The settings on record: 10 nM enzyme, fluorescence ex/em 340/485 nm. Here is the method: A hydroxyprostaglandin dehydrogenase inhibition screening biochemical assay can be performed to assess the synthesized inhibitors provided herein. Provided herein is an exemplary biochemical assay for hPGDH inhibitor screening.
The in vitro biochemical assay can be performed in white, 384 plates in total 20 μl reaction volume consisting of 10 nM of 15-PGDH/HPGD (R&D System #5660-DH), 15 µM Prostaglandin E2 (Sigma, Cat #P5640-10MG) and 0.25 mM β-Nicotinamide adenine dinucleotide sodium salt (Sigma, Cat #N0632-5G) made in reaction buffer (50 mM Tris-HCl, pH 7.5, 0.01% Tween 20) at 10-point dose response curve for test/tool compounds. Briefly, 5 μl (4×) of compounds solution and 5 μl (final concentration, 10 nM) of enzyme solution is added to white 384 well plates and incubated for 10 mins at 37° C. 5 μl (4×) of Prostaglandin E2 and 5 μl (4×) of β-Nicotinamide adenine dinucleotide sodium salt is added to the wells and incubated for 10 mins at room temperature. Fluorescence is recorded at ex/em=340 nm/485 nm.

In another assay the test system is A549. Put plainly: A549 EC50 (cell assay, no method described). The format is cell-based.

Take `O=S(=O)(c1cnc2c(ccn2-c2cccc(-c3nnc[nH]3)c2)c1)C1CCCC1` [Compound 61]: the IC50 (usually the point on the concentration scale where inhibition reaches its midpoint) against 15-PGDH/HPGD was below 100 nM. Also, the EC50 (in general, the concentration giving half of the maximal effect) in the assay with A549 (Homo sapiens, A549, A549) is 100 to 1000 nM.
For `COc1ccc(-c2cccc(-n3ncc4cc([S+]([O-])C5CCC5)cnc43)c2)cn1` (stereo not shown) [Compound 90A] the same measures were below 100 nM and 100 to 1000 nM.
The matching figures for `[O-][S+](c1cnc2c(cnn2-c2cccc(-c3nnc[nH]3)c2)c1)C1CCCC1` (stereo not shown) [Compound 26A]: below 100 nM and below 100 nM.
The compound `[O-][S+](c1cnc2c(cnn2-c2cccc(-c3nnc[nH]3)c2)c1)C1CCOCC1` (stereo not shown) [Compound 38] returned an IC50 against 15-PGDH/HPGD of 100 to 1000 nM. The same compound came in with an EC50 in the assay on A549 (Homo sapiens, A549, A549) of at least 1000 nM.
Turning to `CC(C)CC[S+]([O-])c1cnc2c(cnn2-c2ccc(CCCC(=O)O)c(F)c2)c1` (stereo not shown) [Compound 127B], the IC50 on 15-PGDH/HPGD was below 100 nM.
Same read-out and setting: the figure for `[O-][S+](c1cnc2c(cnn2-c2cccc(-c3nnc[nH]3)c2)c1)C1CC(F)(F)C1` (single isomer, unassigned) [Compound 7A] is 100 to 1000 nM.
With `[O-][S+](c1cnc2c(cnn2-c2cccc(-c3ccc(O)nc3)c2)c1)C1CCC(F)(F)C1` (single isomer, unassigned) [Compound 5A], at 15-PGDH/HPGD, the IC50 lay in the range of 100 to 1000 nM. The same compound came in with an EC50 in the assay on A549 (A549) of at least 1000 nM.
With `CCOC(=O)Nc1cncc(-n2ccc3cc([S+]([O-])CC4CCC4)cnc32)c1` (stereo not shown) [Compound 70], on 15-PGDH/HPGD, the IC50 was below 100 nM. In the assay on A549 (Homo sapiens, A549, A549), this compound returned an EC50 of at least 1000 nM.
The matching figures for `COCC[S+]([O-])c1cnc2c(cnn2-c2cccc(-c3nnc[nH]3)c2)c1` (stereo not shown) [Compound 28]: below 100 nM and 100 to 1000 nM.
The matching figures for `[O-][S+](CC1CC1)c1cnc2c(cnn2-c2ccc(-c3nnc[nH]3)cc2)c1` (stereo not shown) [Compound 46]: below 100 nM and 100 to 1000 nM.
The compound `COCC(C)(C)C[S+]([O-])c1cnc2c(cnn2-c2cccc(-c3nnc[nH]3)c2)c1` (single isomer, unassigned) [Compound 126B] returned a concentration for half-maximal inhibition (IC50) against 15-PGDH/HPGD below 100 nM.
For `[O-][S+](CCC1CC1)c1cnc2c(ccn2-c2cccc(-c3nnc[nH]3)c2)c1` (single isomer, unassigned) [Compound 51B], at 15-PGDH/HPGD, the IC50 was below 100 nM. Also, the EC50 with A549 (A549) is below 100 nM.
In the case of `[O-][S+](c1cnc2c(cnn2-c2cccc(-c3nnc[nH]3)c2)c1)C1C[C@@H]2C[C@@H]2C1` (single isomer, unassigned) [Compound 123A], the IC50 on 15-PGDH/HPGD is below 100 nM. Besides, the concentration giving a half-maximal response (EC50) in the assay with A549 (A549) is at least 1000 nM.
The compound `CCCC[S+]([O-])c1cnc2c(cnn2-c2cc(F)cc(NC(=O)OCC)c2)c1` (stereo not shown) [Compound 27B] yielded an IC50 against 15-PGDH/HPGD of at least 1000 nM.
The same measure, in the same setting: to `[O-][S+](c1cnc2c(cnn2-c2ccc3nc(N4CCOCC4)nn3c2)c1)C1CC(F)(F)C1` (stereo not shown) [Compound 117A] belongs below 100 nM.
Regarding `Cc1nnc(-c2cccc(-n3ncc4cc([S+]([O-])C5CC(F)(F)C5)cnc43)c2)[nH]1` (stereo not shown) [Compound 97B], the half-inhibitory concentration (IC50) at 15-PGDH/HPGD fell in the range of 100 to 1000 nM. Further, the EC50 in the assay with A549 (A549) was at least 1000 nM.
For the compound `CC(C)CC[S+]([O-])c1cnc2c(cnn2-c2ccc(CCC(=O)O)c(F)c2)c1` (stereo not shown) [Compound 121A], the concentration for half-maximal inhibition (IC50) against 15-PGDH/HPGD is below 100 nM. For the same compound, the EC50 in the assay with A549 (Homo sapiens, A549, A549) was at least 1000 nM.
`[O-][S+](c1cnc2c(cnn2-c2cccc(-c3nnc[nH]3)c2)c1)C1CCC1` (single isomer, unassigned) [Compound 18B, 1-(3-(4H-1,2,4-triazol-3-yl)phenyl)-5-(cyclobutylsulfinyl)-1H-pyrazolo[3,4-b]pyridine] showed an IC50 on 15-PGDH/HPGD below 100 nM. Also, the EC50 in the assay with A549 (A549) was below 100 nM.
`O=c1ccc(-c2cccc(-n3ncc4cc([S+]([O-])C5CCC5)cnc43)c2)c[nH]1` (stereo not shown) [Compound 96A] registered an IC50 against 15-PGDH/HPGD below 100 nM. In addition, in the assay with A549 (Homo sapiens, A549, A549), the EC50 was at least 1000 nM.
Compound `CC(=O)Nc1cccc(-c2cncc(-n3ncc4cc([S+]([O-])C5CCCC5)cnc43)c2)c1` (single isomer, unassigned) [Compound 14B] gave an IC50 at 15-PGDH/HPGD of 100 to 1000 nM.
In turn, `[O-][S+](c1cnc2c(cnn2-c2ccc3nc(N4CCOCC4)nn3c2)c1)C1CC(F)(F)C1` (stereo not shown) [Compound 117B] registered an IC50 at 15-PGDH/HPGD of 100 to 1000 nM.
Still for that read-out and setting: to `[O-][S+](c1cnc2c(cnn2-c2cccc(-c3nnc[nH]3)c2)c1)C1CCC(F)(F)C1` (single isomer, unassigned) [Compound 8B] belongs 100 to 1000 nM; to `[O-][S+](c1cnc2c(cnn2-c2cccc(-c3ccnc(N4CCOCC4)c3)c2)c1)C1CCC1` (stereo not shown) [Compound 91B], 100 to 1000 nM.
On the same count and under the same terms, to `[O-][S+](c1cnc2c(cnn2-c2cccc(-c3ccnc(N4CCOCC4)c3)c2)c1)C1CCC1` (stereo not shown) [Compound 91A] belongs below 100 nM; to `COCCC[S+]([O-])c1cnc2c(ccn2-c2cccc(-c3nnc[nH]3)c2)n1` (stereo not shown) [Compound 103A], 100 to 1000 nM; to `[O-][S+](c1cnc2c(cnn2-c2cccc(-c3ccc(N4CCOCC4)nc3)c2)c1)C1CCC1` (stereo not shown) [Compound 95A], below 100 nM.
Same read-out and setting: to `CC(C)CC[S+]([O-])c1cnc2c(cnn2-c2ccc(CCCC(=O)O)c(F)c2)c1` (stereo not shown) [Compound 127A] belongs 100 to 1000 nM; to `Cc1nnc(-c2cccc(-n3ncc4cc([S+]([O-])C5CCC5)cnc43)c2)[nH]1` (stereo not shown) [Compound 92A], 100 to 1000 nM; to `CCOC(=O)Nc1cncc(-n2ncc3cc(C(=O)CC4CCC4)cnc32)c1` [Compound 42], below 100 nM.
Turning to `[O-][S+](c1cnc2c(cnn2-c2cccc(-c3ccc(O)nc3)c2)c1)C1CCC(F)(F)C1` (single isomer, unassigned) [Compound 5D], the IC50 at 15-PGDH/HPGD was below 100 nM.
Same read-out and setting: the figure for `CCOC(=O)Nc1cncc(-n2ccc3cc([S+]([O-])C4CC4)cnc32)c1` (stereo not shown) [Compound 67] is below 100 nM.
Take `[O-][S+](c1cnc2c(cnn2-c2cccc(-c3ccc(O)nc3)c2)c1)C1CCC(F)(F)C1` (single isomer, unassigned) [Compound 5B]: the IC50 at 15-PGDH/HPGD is at least 1000 nM.
As for `[O-][S+](c1cnc2c(cnn2-c2cccc(-c3ccc(N4CCOCC4)nc3)c2)c1)C1CCC1` (stereo not shown) [Compound 95B], the IC50 against 15-PGDH/HPGD was 100 to 1000 nM.
Still for that read-out and setting: the figure for `[O-][S+](c1cnc2c(cnn2-c2cccc(-c3nnc[nH]3)c2)c1)C1CCC(F)(F)C1` (single isomer, unassigned) [Compound 8A] is at least 1000 nM; for `COc1cc(-c2cccc(-n3ncc4cc([S+]([O-])C5CCC5)cnc43)c2)ccn1` (single isomer, unassigned) [Compound 93B] it is at least 1000 nM.
In turn, `O=c1cc(-c2cccc(-n3ncc4cc([S+]([O-])C5CCC5)cnc43)c2)cc[nH]1` (stereo not shown) [Compound 94B] returned an IC50 against 15-PGDH/HPGD of 100 to 1000 nM.
On the same count and under the same terms, the figure for `O=S(=O)(c1cnc2c(cnn2-c2ccc(-c3nnc[nH]3)cc2)c1)C1CCOCC1` [Compound 37] is at least 1000 nM.
In the assay with A549 (Homo sapiens, A549, A549), `CC1(O)CC([S+]([O-])c2cnc3c(cnn3-c3cccc(-c4nnc[nH]4)c3)c2)C1` (stereo not shown) [Compound 107A] came in with an EC50 of at least 1000 nM.
`COCC(C)(C)C[S+]([O-])c1cnc2c(cnn2-c2cccc(-c3nnc[nH]3)c2)c1` (single isomer, unassigned) [Compound 126A] returned an IC50 on 15-PGDH/HPGD of at least 1000 nM.
Still for that read-out and setting: the figure for `COc1ccc(-c2cccc(-n3ncc4cc([S+]([O-])C5CCC5)cnc43)c2)cn1` (stereo not shown) [Compound 90B] is 100 to 1000 nM; for `CC(C)OC[S+]([O-])c1cnc2c(cnn2-c2cccc(-c3nnc[nH]3)c2)c1` (single isomer, unassigned) [Compound 2A, 1-(3-(4H-1,2,4-triazol-3-yl)phenyl)-5-((isopropoxymethyl)sulfinyl)-1H-pyrazolo[3,4-b]pyridine] it is 100 to 1000 nM.

These data come from patent US20260226066A1, “PGDH INHIBITORS AND METHODS OF MAKING AND USING” (Epirium Bio Inc., priority 2023, published 2026).
